Reference: patent US20200390095A1, “USE OF ERYTHRITOL OR COMPOSITIONS COMPRISING SAME AS MAMMAL-SAFE INSECTICIDES” (Drexel University, priority 2014, published 2020)

Columns and labels:
[1] = test system: fruit flies; experiment: Longevity comparison of erythritol with other human-safe sweet alcohols; assay type: in vivo, Drosophila melanogaster; details: 1 M sweetener in standard fly food, 17 days; for longevity compared to sucrose control: log rank test
Protocol: An experiment was conducted to compare the effectiveness of erythritol with other human-safe sweet alcohols: D-mannitol, maltitol, sucrose, and xylitol. The concentration of all sweet alcohols were 1M. Flies were raised for 17 days on standard fly food that contained 1 M concentrations of each sweetener treatment. Death of flies was recorded daily as before; each treatment was replicated on three vials of 10 flies each for 30 subjects/treatment. Differences in longevity were analyzed using the Kaplan-Meier survival analysis log rank test, making all pairwise comparisons among treatments.

[2] = test system: humans; details: oral consumption; cited from earlier work
[3] = test system: Drosophila melanogaster; experiment: Longevity assay of adult flies raised on food containing sweeteners; assay type: in vivo; details: repeat study with blue dye food
Protocol: All animals were cultured at 25° C., kept at 50-60% humidity, and were raised under a standard 12:12 light dark cycle. For each experimental treatment, n=30 flies were tested in groups of 10 per tube, and three tubes per treatment. Tubes were kept on their side to minimize subject becoming mired in the food. Foods were replaced twice a week. The total number of fruit flies used for these experiments was 780, with 300 used for two initial trials testing mortality among store-brand sweeteners, 210 used for repeating this with blue dye and pure erythritol, 120 for choice trials and 150 for concentration trials.
Standard Drosophila food for larval culturing consisted of water, cornmeal, yeast, molasses, and agar, as previously described (Chakraborty, et al., 2011, PLoS ONE 6: e20799). […] The addition of cornmeal and yeast assured the flies still received sufficient carbohydrates and protein in addition to any effects of the treatment additives.
Drosophila food was combined with an equal weight/volume (0.0238 g/ml) of one non-nutritive sweetener (TRUVIA, EQUAL, SPLENDA, SWEET'NLOW, or PUREVIA) or a control nutritive sweetener (controls: sucrose or corn syrup). Wild type (Canton S) larvae were initially raised on the standard food, and 0-12 hour old adult flies were transferred to foods containing one non-nutritive sweetener or a control treatment. […] The number of dead flies were scored daily.

[4] = test system: Drosophila melanogaster; experiment: Concentration trials of erythritol on fly longevity; assay type: in vivo
Protocol: Standard fly foods were prepared as previously described, and then were treated with 2M, 1M, 0.5M and 0.1M concentrations of erythritol, using 0.5M sucrose as control. 0 to 24 hour-old Drosophila were placed on these foods and mortality was recorded daily for 35 days as above. Analyses were conducted with SPSS software v. 20 (IBM corporation 2011). Fly longevity data were analyzed using survival analysis with right-hand censoring of subjects that lived to the end of the study or were lost for reasons other than death. Test were run for differences in survival distributions [Pr(flies alive) versus insect age] using the log-rank (Mantel-Cox) test to make all pairwise comparisons among treatments within each experiment.

[5] = test system: Drosophila melanogaster; experiment: Two-way choice experiments, longevity; assay type: in vivo; details: 30 days
Protocol: Foods containing 2 M erythritol, 1M erythritol and 1M sucrose were prepared for paired presentations in open choice tests. In each treatment one food type contained 0.05% brilliant blue FCF (Fisher 50-727-25). The blue dye allowed visual confirmation of feeding on the dyed food in the pair. The flies were presented with access to two food choices by using a modified cotton stopper with approximately a 1.5 cm diameter hole to connect each pair of food tubes. […] The final choice treatment was between blue 2M erythritol food and non-blue 1M sucrose food (this treatment provides a comparison with the 1 M erythritol/1 M erythritol treatment as a test of dilution of toxicity by alternative food sources; blue guts would confirm erythritol was being consumed in the presence of sucrose). The number of flies with visible blue gut contents and mortality daily were recorded for 30 days. Analyses were conducted with SPSS software v. 20 (IBM corporation 2011). Fly longevity data were analyzed using survival analysis with right-hand censoring of subjects that lived to the end of the study or were lost for reasons other than death. Test were run for differences in survival distributions [Pr(flies alive) versus insect age] using the log-rank (Mantel-Cox) test to make all pairwise comparisons among treatments within each experiment.

OC[C@@H](O)[C@H](O)[C@@H](O)CO [xylitol]
longevity compared to sucrose control [1]: did not differ from the control

OC[C@@H](O)[C@@H](O)CO [erythritol, (2R,3S)-butane-1,2,3,4-tetraol]
tolerability of consumption by humans [2]: very well tolerated
longevity, erythritol versus TRUVIA treatment ([3]; 0.0238 g/ml): did not differ
longevity compared to PUREVIA, EQUAL, sucrose and corn syrup ([3]; 0.0238 g/ml of each sweetener): significant decreases in longevity
mean fly longevity ([1]; mean ± SE): 4.7 ± 0.15 days
longevity compared to control food containing 0.5M sucrose ([4]; 0.1M erythritol in food, observations terminated at 35 days): no significant difference in longevity
longevity compared to control food containing 0.5M sucrose ([4]; 0.5M erythritol in food, 35 days): significant reductions in longevity
longevity compared to control food containing 0.5M sucrose ([4]; 1M erythritol in food, 35 days): significant reductions in longevity
effect on longevity compared to all other treatments ([4]; 2M erythritol in food, 35 days): significant and severe effect on longevity
longevity relative to sucrose:sucrose choice ([5]; choice between 1M sucrose and 1M erythritol): significantly decreased longevity
longevity relative to sucrose:sucrose choice ([5]; choice between 1M sucrose and 2M erythritol): significantly reduced
survival distributions, 2M erythritol/1M sucrose choice versus 1M erythritol/1M erythritol ([5]; choice chamber): nearly identical

OC[C@@H](O)[C@@H](O)[C@H](O)[C@H](O)CO [D-mannitol]
longevity compared to sucrose control [1]: slightly but significantly reduced longevity

OC[C@@H](O)[C@@H](O[C@H]1O[C@H](CO)[C@@H](O)[C@H](O)[C@H]1O)[C@H](O)[C@@H](O)CO [maltitol]
longevity compared to sucrose control [1]: did not differ from the control
